One compound from patent US20020132812A1, “Oral hypoglycaemic agents” (priority 2000, published 2002) can be followed below.

The subject of assay [1] is rat pancreatic α-cells. Put plainly: Ca2+-dependent exocytosis (cell capacitance) in single rat pancreatic α-cells. Type of assay: cell-based. The procedure:
Male Lewis rats (250-300 g; Møllegaard, Lille Skensved, Denmark) were anaesthetised by pentobarbital (100 mg/kg i.p.). After removal of the pancreas, islets were isolated by collagenase digestion and dispersed into single cells using dispase (Sigma). The α-cells were then separated by fluorescence-activated cell sorting as described elsewhere (Josefsen et al. J. Endocrinol., Vol.149, pp.145-154, 1996). Based on the hormone contents and their glucose sensitivities, we estimate that the preparation contains >80% α-cells and <3% β-cells. […]
Patch pipettes were drawn from borosilicate glass capillaries. […] The currents were recorded using an Axopatch 200B patch clamp amplifier (Axon Instruments, Foster City, Calif., USA), digitized and stored in a computer using the Digidata AD-converter and the software pClamp (version 6.0; Axon Instruments). Alternatively, KATP-currents were recorded using an EPC-9 patch clamp amplifier and the Pulse software (v. 8.01; HEKA Elektronik, Lamprecht/Pfalz, Germany). Exocytosis was monitored as increases in cell membrane capacitance (Neher & Marty Proc. Natl. Acad, Sci. USA, Vol. 79, pp. 6712-6716,1982) using the standard whole-cell configuration of the patch-clamp technique and an EPC-9 patch-clamp amplifier and the Pulse software (v. 8.01; HEKA Elektronik). […]

Assay [2] deals with isolated perfused rat pancreas. Put plainly: Insulin release from isolated perfused rat pancreas. The procedure:
The effect of the compounds of the invention on the insulin release from isolated perfused rat pancreas can be investigated as exemplified below with the title compound of Example 2 (compound (Ex 2). In the example described, the investigation is carried out at 2.8 mM and 8.3 mM glucose.
Male Sprague Dawley rats (body weight around 300 g) were anaesthetised with a mixture of Hypnorm® (Janssen Pharma) and Dormicum® (Roche) and the pancreas was cannulated and isolated a described by Sturis et al., Am. J. Physiol. 269, E786-E792, 1995. The organ was placed at 37° C. in a humidified perfusion chamber and perfused with a […] gassed bicarbonated Krebs Ringer, 4% Dextran buffer from a pump delivering 71% of the total volume and from a pump delivering 29% volume of the same buffer with added BSA (0.2% final concentration) and glucose (2.8 mM or 8.3 mM final concentration). The 29% pump also delivered compund (Ex 2) at 10^−5 M in the interval t=20-40 min and at 10^−4 M in the interval t=60-80 min. The pancreata were acclimatised for 20 min before start of sampling at 1 fraction of ca 1900 μl/min for 100 min. Aliquots of 200 μl were frozen away at −20° C. for subsequent insulin ELISA using guinea pig anti-insulin antibodies. The results are shown in FIG. 7 and are expressed as fmol insulin released per pancreas per min. Each plot represents one pancreas, except 8.3 mM glucose alone mean of n=2. […] In the pancreas infused with 8.3 mM glucose and compound (Ex 2) there was an initial noise in the interval t=0-20 min which was due to a mechanical problem with the tubing. […] When 10^−4 M compound (Ex 2) was added at t=60 min there was a classic first-phase insulin release peaking at 3000 fmol/min, followed by second-phase release. […] We have evidence that non-reversal may be due to the low BSA concentration (0.2%) in the perfusate.
In the pancreas perfused with compound (Ex 2) at 2.8 mM glucose, the insulin secretion was only about 10% of that seen at 8.3 mM glucose (max. 250 fmol/min) with 10^−4 M compound (Ex 2) while the control pancreas secretion was flat at ca 20 fmol/min.

Molecules are shown by their SMILES.

Turning to `COc1cccc(C(CC2=NCCN2)c2ccccn2)c1` (single isomer, unassigned; (-)) [compound (Ex 2), (−)-2-(2-(4,5-Dihydro-1H-imidazol-2-yl)-1-(3-methoxyphenyl)ethyl)pyridine], the “rate of exocytosis (ΔCm/Δt) measured over the first 60 s after establishment of the whole-cell configuration” value in assay [1] (100 μM compound in pipette solution, free Ca2+ 2 μM, control 16.8±2.5 fF/s, n=5) was 4.6±0.7 fF/s. Further, the “effect on Ca2+-dependent exocytosis (in words)” value in assay [1] (0.1 mM compound, Ca2+ 2 μM) is given as “strong inhibition of the exocytotic response”. In addition, the “insulin secretion, max.” value in assay [2] (2.8 mM glucose, 10^-4 M compound, control pancreas ca 20 fmol/min) was determined as 250 fmol/min. For the same compound, the “first-phase insulin release, peak” value in assay [2] (8.3 mM glucose, 10^-4 M compound added at t=60 min, 8.3 mM glucose alone 300 up to ca 700 fmol/min) turned out to be 3000 fmol/min. The “effect on insulin secretion (in words)” value in assay [2] (8.3 mM glucose, 10^-5 M compound, t=20-40 min) is given as “small increase in insulin secretion”. For the same compound, the “insulin secretion at 2.8 mM glucose as share of that seen at 8.3 mM glucose” value in assay [2] (10^-4 M compound) is on record as “about 10%”.
